Experimental data reported in US5866700A, “Solid-phase synthesis of oligoribonucleotides” (Hoechst Aktiengesellschaft, priority 1993, dated 1999).

Test: Stability test: half-life for deprotection in 0.05N HCl/MeOH (Table 1)
Assay type: physicochemical
Conditions: 0.05N HCl/MeOH (1:2), 30 mmolar solution, 20° C., pH 2.0; values +/- 10%
Description: (§1) To test the stability, the following uridine derivatives were incubated in 0.05N HCl/MeOH (1:2), 30 mmolar solution, 20° C., pH 2.0 (Table 1) or in 80% acetic acid, 30 mmolar solution, 20° C. (Table 2) and the half-life for deprotection was determined: […]

Point of comparison: `CC(OCCC#N)O[C@@H]1[C@H](O)[C@@H](CO)O[C@H]1n1ccc(=O)[nH]c1=O` (stereo partly shown) [CH2 CH2CN], “t1/2 (half-life for deprotection)” value 56.17 h. Against it:
- COc1ccc(COC(C)O[C@@H]2[C@H](O)[C@@H](CO)O[C@H]2n2ccc(=O)[nH]c2=O)cc1 (stereo partly shown) — 46-fold lower, 1.22 h
- COc1ccc(COC(C)O[C@@H]2[C@H](O)[C@@H](CO)O[C@H]2n2ccc(=O)[nH]c2=O)cc1OC (stereo partly shown) — 41-fold lower, 1.37 h
- CC(OCCc1ccc([N+](=O)[O-])cc1)O[C@@H]1[C@H](O)[C@@H](CO)O[C@H]1n1ccc(=O)[nH]c1=O (stereo partly shown) — 15-fold lower, 3.7 h
- CC(OCCSc1ccccc1)O[C@@H]1[C@H](O)[C@@H](CO)O[C@H]1n1ccc(=O)[nH]c1=O (stereo partly shown) — 15-fold lower, 3.83 h
- CC(OCCN1C(=O)c2ccccc2C1=O)O[C@@H]1[C@H](O)[C@@H](CO)O[C@H]1n1ccc(=O)[nH]c1=O (stereo partly shown) — 4-fold lower, 14 h
- CC(OCc1ccc([N+](=O)[O-])cc1)O[C@@H]1[C@H](O)[C@@H](CO)O[C@H]1n1ccc(=O)[nH]c1=O (stereo partly shown) — 1.7-fold lower, 32.67 h
- CC(OCc1ccccc1[N+](=O)[O-])O[C@@H]1[C@H](O)[C@@H](CO)O[C@H]1n1ccc(=O)[nH]c1=O (stereo partly shown) — 1.5-fold lower, 37.33 h
- CC(OCCS(C)(=O)=O)O[C@@H]1[C@H](O)[C@@H](CO)O[C@H]1n1ccc(=O)[nH]c1=O (stereo partly shown) — within 1.5-fold, 52 h
- CC(OCCS(=O)(=O)c1ccccc1)O[C@@H]1[C@H](O)[C@@H](CO)O[C@H]1n1ccc(=O)[nH]c1=O (stereo partly shown) — within 1.5-fold, 52 h
- CC(OCCCl)O[C@@H]1[C@H](O)[C@@H](CO)O[C@H]1n1ccc(=O)[nH]c1=O (stereo partly shown) [CH2CH2Cl] — 5.5-fold lower, 10.3 h
- CC(OCC[N+](=O)[O-])O[C@@H]1[C@H](O)[C@@H](CO)O[C@H]1n1ccc(=O)[nH]c1=O (stereo partly shown) [CH2CH2NO2] — within 1.5-fold, 67.17 h
- CC(OCc1ccccc1)O[C@@H]1[C@H](O)[C@@H](CO)O[C@H]1n1ccc(=O)[nH]c1=O (stereo partly shown) [drawing 52] — 19-fold lower, 2.92 h

In the case of `CC(OCCc1ccc([N+](=O)[O-])cc1[N+](=O)[O-])O[C@@H]1[C@H](O)[C@@H](CO)O[C@H]1n1ccc(=O)[nH]c1=O` (stereo partly shown), the “t1/2 (half-life for deprotection)” value is reported as “approx. 1200 min”.
For `CC(OCc1ccc([N+](=O)[O-])cc1[N+](=O)[O-])O[C@@H]1[C@H](O)[C@@H](CO)O[C@H]1n1ccc(=O)[nH]c1=O` (stereo partly shown), the “t1/2 (half-life for deprotection)” value was “approx. 14000 min”.

Test: Stability test: half-life for deprotection in 80% acetic acid (Table 2)
Assay type: physicochemical
Conditions: 30 mmolar solution, 20° C., Values +/- 5%
Description: as §1

Point of comparison: `CC(OCc1cc(Cl)c(O)cc1Cl)O[C@@H]1[C@H](O)[C@@H](CO)O[C@H]1n1ccc(=O)[nH]c1=O` (stereo partly shown), “t1/2 (half-life for deprotection)” value 4.17 h. Against it:
- CC(OCc1ccc(O)cc1)O[C@@H]1[C@H](O)[C@@H](CO)O[C@H]1n1ccc(=O)[nH]c1=O (stereo partly shown) — 12-fold lower, 0.35 h
- CC(OCc1ccc(OC(=O)OCCc2ccc([N+](=O)[O-])cc2)cc1)O[C@@H]1[C@H](O)[C@@H](CO)O[C@H]1n1ccc(=O)[nH]c1=O (stereo partly shown) — 2.4-fold lower, 1.73 h
- CC(OCc1ccc(O)c(F)c1)O[C@@H]1[C@H](O)[C@@H](CO)O[C@H]1n1ccc(=O)[nH]c1=O (stereo partly shown) — 5.2-fold lower, 0.8 h
- CC(OCc1ccc(OC(=O)OCCc2ccc([N+](=O)[O-])cc2)c(F)c1)O[C@@H]1[C@H](O)[C@@H](CO)O[C@H]1n1ccc(=O)[nH]c1=O (stereo partly shown) — within 1.5-fold, 5.08 h
- CC(OCc1ccc(O)c(Cl)c1)O[C@@H]1[C@H](O)[C@@H](CO)O[C@H]1n1ccc(=O)[nH]c1=O (stereo partly shown) — 4.5-fold lower, 0.917 h
- CC(OCc1cc(Cl)c(OC(=O)OCCc2ccc([N+](=O)[O-])cc2)cc1Cl)O[C@@H]1[C@H](O)[C@@H](CO)O[C@H]1n1ccc(=O)[nH]c1=O (stereo partly shown) — 5.2-fold higher, 21.67 h
- CC(OCc1cc(Cl)c(OC(=O)C(C)(C)C)cc1Cl)O[C@@H]1[C@H](O)[C@@H](CO)O[C@H]1n1ccc(=O)[nH]c1=O (stereo partly shown) — 5.4-fold higher, 22.58 h
- CC(OCc1c(Cl)cccc1Cl)O[C@@H]1[C@H](O)[C@@H](CO)O[C@H]1n1ccc(=O)[nH]c1=O (stereo partly shown) — 4.5-fold higher, 18.8 h
- CC(OCc1ccccc1)O[C@@H]1[C@H](O)[C@@H](CO)O[C@H]1n1ccc(=O)[nH]c1=O (stereo partly shown) [drawing 64] — 3.8-fold lower, 1.1 h
